Assay results as given in patent US20250145631A1, “HETEROCYCLIC COMPOUND ACTING ON G12D MUTANT KRAS PROTEIN” (Astellas Pharma Inc., priority 2022, published 2025).

Columns and labels:
[1] = system: human G12D mutant KRAS-positive pancreatic cancer line AsPC-1; assay: Non-anchorage-dependent cell growth inhibitory effect, spheroid 3D culture (Test Example 3); assay type: cell-based; settings: ASPC1, 144 h, AsPC-1 spheroid 3D culture, 6 days, CellTiter Glo 2.0, read-out: IC50 (non-anchorage-dependent cell growth inhibition)
Summary of the method: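 AsPC-1 cells grown as spheroids in RPMI 1640 with 10% FBS at 37° C, 5% CO2, then exposed to compounds (10 μM to 0.3 nM final) for 6 days. Viability read by CellTiter Glo 2.0 luminescence. IC50 from Sigmoid-Emax regression with DMSO as 100% and cell-free medium as 0%.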

[2] = system: human KRAS G12D mutant-positive PK-59 pancreatic cancer cell line-derived xenograft; assay: Anti-tumor activity in PK-59 xenograft mice (Test Example 4); assay type: in vivo; settings: 3 mg/kg into tail vein, once a week, twice in total; PK-59 xenograft nude mice
Description: PK-59 cells (RIKEN BioResearch Center, RCB1901) were cultured using RPMI 1640 medium containing 10% fetal bovine serum in the presence of 5% CO2 at 37° C. The PK-59 cells were collected and suspended in PBS, and after adding an equal amount of Matrigel (from Becton, Dickinson and Company), 4- to 5-week-old male nude mice (BALB/c-nu (nu/nu), from Charles River Laboratories Japan) were subcutaneously inoculated with the cell suspension of 1.0 to 2.0×10^7 cells/mL was subcutaneously inoculated in a volume of 100 μL per mouse. About two weeks after the inoculation, the mice were divided into groups so that all the groups had approximately the same tumor volume and body weight, and administration of test compounds was started on the next day. The study was conducted for 5 mice each of a vehicle group and test compound administration groups. The compounds were dissolved in a solvent containing ethanol (from FUJIFILM Wako Pure Chemical Corporation), a 5% glucose solution (from Otsuka Pharmaceutical), 1M hydrochloric acid (from Kanto Chemical Co., Inc.), 50% (2-hydroxypropyl)-P-cyclodextrin (HP-βCD) solution (from ROQUETTE), HCO-40 (from Nikko Chemicals Co., Ltd.) and 1M sodium hydroxide solution (from Kanto Chemical Co., Inc.) at a liquid amount ratio of 4:84.4:1.1:1:9:0.5. The test compounds dissolved in the respective solvents or the solvents were administered into tail vein. The administration was performed once a week and twice in total. The tumor sizes and the body weights were measured twice a week. The tumor volumes were calculated using the following equation.
[Tumor volume (mm^3)]=[Long diameter of tumor (mm)]×[Short diameter of tumor (mm)]^2×0.5
The tumor growth inhibition rate (%) by the test compounds were calculated with the tumor volumes of the test compound administration groups on the previous day of the start of the administration taken as 100% inhibition and the tumor volumes of the vehicle groups two weeks after the initial administration taken as 0% inhibition. In addition, when the tumor volume of a test compound administration group was smaller than the tumor volume on the previous day of the start of the administration, the tumor regression rate (%) by the test compound was calculated with the tumor volume on the previous day of the start of the administration taken as 0% regression and with the tumor volume 0 taken as 100% regression.

IC50 [1] [µM] | Structure (SMILES) | Anti-Tumor Activity Two Weeks After Initial Administration (tumor regression rate) [2] [% regression]
0.027 | Cc1c(F)cc2[nH]ncc2c1-c1c(C2CC2)cc2c(N3C[C@@H]4C[C@H]3CN4)nc(OC3CCOCC3)nc2c1OCc1ccc(C(=O)N2CCN(Cc3ccc4c(c3)n(C)c(=O)n4C3CCC(=O)NC3=O)C[C@@H]2C)cc1 (stereo partly drawn) [Example 8, 3-(5-{[(3S)-4-{4-[({(7M)-6-cyclopropyl-4-[(1S,4S)-2,5-diazabicyclo[2.2.1]heptan-2-yl]-7-(6-fluoro-5-methyl-1H-indazol-4-yl)-2-[(oxan-4-yl)oxy]quinazolin-8-yl}oxy)methyl]benzoyl}-3-methylpiperazin-1-yl]methyl}-3-methyl-2-oxo-2,3-dihydro-TH-benzimidazol-1-yl)piperidine-2,6-dione] | 28
0.015 | CO[C@@H](C)COc1nc(N2C[C@@H]3C[C@H]2CN3)c2cc(C3CC3)c(-c3c(C)c(F)cc4[nH]ncc34)c(OCc3ccc(C(=O)N4CCN(Cc5ccc6c(c5)n(C)c(=O)n6C5CCC(=O)NC5=O)C[C@@H]4C)cc3)c2n1 (stereo partly drawn) [Example 10, 3-(5-{[(3S)-4-{4-[({(7M)-6-cyclopropyl-4-[(1S,4S)-2,5-diazabicyclo[2.2.1]heptan-2-yl]-7-(6-fluoro-5-methyl-1H-indazol-4-yl)-2-[(2S)-2-methoxypropoxy]quinazolin-8-yl}oxy)methyl]benzoyl}-3-methylpiperazin-1-yl]methyl}-3-methyl-2-oxo-2,3-dihydro-1H-benzimidazol-1-yl)piperidine-2,6-dione] | 28
0.041 | CO[C@@H](C)COc1cc(O[C@H]2CCNC2)c2cc(C3CC3)c(-c3c(C)c(F)cc4[nH]ncc34)c(OCc3ccc(C(=O)N4CCN(Cc5ccc6c(c5)n(C)c(=O)n6C5CCC(=O)NC5=O)C[C@@H]4C)cc3)c2n1 (stereo partly drawn) [Example 12, 3-[5-({(3S)-4-[4-({[6-cyclopropyl-7-(6-fluoro-5-methyl-1H-indazol-4-yl)-2-[(2S)-2-methoxypropoxy]-4-{[(3S)-pyrrolidin-3-yl]oxy}quinolin-8-yl]oxy}methyl)benzoyl]-3-methylpiperazin-1-yl}methyl)-3-methyl-2-oxo-2,3-dihydro-1H-benzimidazol-1-yl]piperidine-2,6-dione] | 35
0.033 | CO[C@@H](C)COc1cc(N2C[C@@H]3C[C@H]2CN3)c2cc(C3CC3)c(-c3c(C)c(F)cc4[nH]ncc34)c(OCc3ccc(C(=O)N4CCN(Cc5ccc6c(c5)n(C)c(=O)n6C5CCC(=O)NC5=O)C[C@@H]4C)cc3)c2n1 (stereo partly drawn) [Example 29, 3-(5-{[(3S)-4-{4-[({6-cyclopropyl-4-[(1S,4S)-2,5-diazabicyclo[2.2.1]heptan-2-yl]-7-(6-fluoro-5-methyl-1H-indazol-4-yl)-2-[(2S)-2-methoxypropoxy]quinolin-8-yl}oxy)methyl]benzoyl}-3-methylpiperazin-1-yl]methyl}-3-methyl-2-oxo-2,3-dihydro-1H-benzimidazol-1-yl)piperidine-2,6-dione] | 5
